In brackets after ≈: the same amount, converted by molar mass. Where two headings read alike, the source gives them in different places. Bridge positions count the residues as written; N and C are the ends. Square brackets hold non-standard residues; d marks the D form. Peptide text beside a SMILES is read from it. R5 = C=CCCC[C@@](C)(N)C(=O)O
Experiments:
[1] = test system: A. baumannii; assay: Bacterial killing kinetics; type: cell-based, Acinetobacter baumannii; details: at respective MBC
Protocol: Mid-log-phase A. baumannii (5 × 10^5 CFU/mL) bacterial cells were treated with the test candidates at appropriate bactericidal concentrations, followed by incubation at 37°C. The treated bacterial cells were plated in MHA to determine the bacterial killing rate as a function of time ([52]).

[2] = test system: MDR A. baumannii 3618; assay: Checkerboard microdilution assay (FICI); type: cell-based, Acinetobacter baumannii; details: for MIC: read-out: Single drug treatment MIC; for TP4-3 and meropenem combined MIC: MIC of each agent in combination
Protocol: (§1) The FICI was measured using a standard checkerboard microdilution assay ([57]). Two-fold dilutions of antibiotics were made across the x axis, and two-fold peptide dilutions were made across the y axis. Next, bacteria were added at 5 × 10^5 CFU/well (A. baumannii), followed by incubation at 37 ± 2°C for 16 to 20 h. FIC indices were calculated according to the following equations: FICI = FIC1 + FIC2; FIC1 = (MIC12 combined)/MIC1; FIC2 = (MIC12 combined)/MIC2. The combined efficacy was estimated as follows: FICI ≤ 0.5, synergistic; 0.5 to 1, additive; 1 to 2, indifferent; ≥2, antagonistic.

[3] = test system: MDR A. baumannii 1033; assay: Checkerboard microdilution assay (FICI); type: cell-based, Acinetobacter baumannii; details: for MIC: read-out: Single drug treatment MIC; for TP4-3 and meropenem combined MIC: MIC of each agent in combination
Protocol: as §1

[4] = test system: MDR A. baumannii 2998; assay: Checkerboard microdilution assay (FICI); type: cell-based, Acinetobacter baumannii; details: for MIC: read-out: Single drug treatment MIC; for TP4-3 and meropenem combined MIC: MIC of each agent in combination
Protocol: as §1

[5] = test system: MDR A. baumannii 2088; assay: Checkerboard microdilution assay (FICI); type: cell-based, Acinetobacter baumannii; details: for MIC: read-out: Single drug treatment MIC; for TP4-3 and meropenem combined MIC: MIC of each agent in combination
Protocol: as §1

[6] = test system: MDR A. baumannii 2997; assay: Checkerboard microdilution assay (FICI); type: cell-based, Acinetobacter baumannii; details: for MIC: read-out: Single drug treatment MIC; for TP4-3 and meropenem combined MIC: MIC of each agent in combination
Protocol: as §1

[7] = test system: MDR A. baumannii 921; assay: microbe, parasite or virus in culture; type: cell-based, Acinetobacter baumannii
Protocol: (§2) The antimicrobial assay was performed according to a modified National Committee for Clinical Laboratory Standards (NCCLS) protocol ([41], [42]). Briefly, 5 × 10^5 CFU/mL bacterial cells were treated with various peptide concentrations and incubated at 37 ± 2°C for 16 to 20 h. The lowest concentration with clear wells was recorded as the MIC for each test molecule. The clear wells were further plated in Mueller-Hinton agar (MHA) plates, followed by incubation overnight at 37 ± 2°C. After plating, the lowest concentration at which no growth was observed was recorded as the MBC. For the serum sensitivity assay, the antimicrobial activity of the peptides was tested in medium containing 50% human serum ([43], [44]).

[8] = test system: MDR A. baumannii 2962; assay: microbe, parasite or virus in culture; type: cell-based, Acinetobacter baumannii
Protocol: as §2

[9] = test system: Pseudomonas aeruginosa; assay: microbe, parasite or virus in culture; type: cell-based; details: for MBC: read-out: MBC; for MIC: read-out: MIC
Protocol: as §2

[10] = test system: Escherichia coli; assay: microbe, parasite or virus in culture; type: cell-based
Protocol: as §2

[11] = test system: Enterobacter aerogenes; assay: microbe, parasite or virus in culture; type: cell-based
Protocol: as §2

[12] = test system: NDM-1 Klebsiella pneumoniae; assay: microbe, parasite or virus in culture; type: cell-based
Protocol: as §2

[13] = test system: E. coli; assay: microbe, parasite or virus in culture; type: cell-based, Escherichia coli; details: for MIC: read-out: Single drug treatment MIC; for TP4-3 and meropenem combined MIC: MIC of each agent in combination
[14] = test system: A. baumannii biofilm; assay: Biofilm rupture assay; type: cell-based, Acinetobacter baumannii; details: even at 4× MIC
Protocol: (ii) Biofilm rupture assay. Fifty μL of A. baumannii bacterial strains suspension cultures (2 × 10^6 CFU/mL) were plated and incubated in a shaking incubator for 24 h. Then, the wells were washed with PBS and treated with 100 μL of peptide/drug at various concentrations. The plates were incubated for 24 h and then washed with PBS. The wells were treated with 100% methanol for 15 min, and the residual solution was washed followed by drying at room temperature. After the wells were dry, 100 μL of 0.02% crystal violet solution was added, followed by incubation for 30 min at room temperature. The wells were then washed with water and dried for an appropriate length of time. Once the wells were dry, 100 μL of 33% acetic acid was added to the wells and they were incubated at room temperature for 1 h. Absorbance was recorded at 595 nm ([55]).

[15] = test system: CLP-induced polymicrobial sepsis in C57BL/6 female mice; assay: CLP-induced polymicrobial sepsis model; type: in vivo; details: for kidney (BUN, CRE) and liver function (GOT, GPT): 24 h after CLP; for survival: 7 days post-operation, i.p. 30 min after CLP, TP4-3 9 mg/kg, meropenem 10 mg/kg, combination 9 mg/kg TP4-3 and 5 mg/kg meropenem, CLP + saline 12.5%
Protocol: (i) CLP surgery. Cecal ligation and puncture surgery was performed to induce polymicrobial sepsis according to a previously described method ([37]). Female C57BL/6 mice at 6 to 8 weeks of age (weight = 18 to 22 g) were anesthetized by intraperitoneal administration of Zoletil (50 mg/kg). Then, a 1-cm incision was made at the abdomen to expose the cecum. The CLP procedure was performed with a 23-G needle. […] A sham group was subjected to abdomen incision without CLP and treated with saline by intraperitoneal injection. After the treatments, percent survival was used as a measure of test-candidate efficacy ([37]).
(ii) Estimation of bacterial load, cytokine expression, and toxicity profile after CLP and treatment. […] Blood samples were taken in collection tubes. Peritoneal fluid was collected in a sterilized 1.5-mL centrifuge tube. Organs, including the liver, lung, spleen, and kidney, were harvested, weighed, and placed in 1-mL sterile PBS for homogenization with a tissue lyzer (Tissuelyzer II, Qiagen, Dusseldorf, Germany). The homogenates, blood, and peritoneal fluid were diluted serially and plated on Mueller-Hinton broth agar plates. The plates were incubated at 37°C overnight. Each tissue was evaluated by measuring CFU/g ([37]).
To evaluate kidney and liver function, blood samples (n = 5 per group) were tested for ALT (GPT), AST (GOT), CRE, and BUN using a dry-chemistry analyzer as described above. Mouse serum was extracted to assess (n = 5 per group) expression of cytokines (Thermo Fisher Scientific, Waltham, MA) as a measure of inflammatory response ([37]).

[16] = Acinetobacter baumannii, MHB medium
[17] = HS, MH medium containing 50% human serum
[18] = Pseudomonas aeruginosa, MHB medium
[19] = Escherichia coli, HS, 50% human serum containing MHB medium
[20] = Klebsiella aerogenes, MHB medium
[21] = HS, 50% human serum containing MHB medium
[22] = Klebsiella pneumoniae, MHB medium
[23] = 24 h, ELISA, compared to saline-treated group
[24] = 72 h compared to 24 h after treatment

C[C@@H](O)[C@H]1C(=O)N2C(C(=O)O)=C(S[C@@H]3CN[C@H](C(=O)N(C)C)C3)[C@H](C)[C@H]12 [Meropenem]
reduction of the bacterial population ([1]; within 8 h): approximately half
MIC ([2]; Acinetobacter baumannii): 200 µM
TP4-3 and meropenem combined MIC ([2]; TP4-3 and M): 25 µM
MIC ([3]; Acinetobacter baumannii): 200 µM
TP4-3 and meropenem combined MIC ([3]; TP4-3 and M): 50 µM
MIC ([4]; Acinetobacter baumannii): 400 µM
TP4-3 and meropenem combined MIC ([4]; TP4-3 and M): 50 µM
MIC ([5]; Acinetobacter baumannii): 400 µM
TP4-3 and meropenem combined MIC ([5]; TP4-3 and M): 100 µM
MIC ([6]; Acinetobacter baumannii): 200 µM
TP4-3 and meropenem combined MIC ([6]; TP4-3 and M): 12.5 µM
MBC [7, 16]: > 25 µM
MIC [7, 16]: > 25 µM
MBC [7, 17]: >25 µM
MIC [7, 17]: >25 µM
MBC [8, 16]: > 25 µM
MIC [8, 16]: > 25 µM
MBC [8, 17]: >25 µM
MIC [8, 17]: >25 µM
MBC ([9]; Pseudomonas aeruginosa, HS, 50% human serum containing MHB medium): 3.13 µM (≈ 1.2 µg/mL)
MBC [9, 18]: 6.25 µM (≈ 2.4 µg/mL)
MIC [9, 18]: 3.13 µM (≈ 1.2 µg/mL)
MIC [9]: 1.56 µM (≈ 0.598 µg/mL)
MBC [10, 19]: 0.78 µM (≈ 0.299 µg/mL)
MIC [10, 19]: 0.78 µM (≈ 0.299 µg/mL)
MBC ([10]; Escherichia coli, MHB medium): 0.39 µM (≈ 0.15 µg/mL)
MIC ([10]; Escherichia coli, MHB medium): 0.39 µM (≈ 0.15 µg/mL)
MBC [11, 20]: 0.39 µM (≈ 0.15 µg/mL)
MIC [11, 20]: 0.39 µM (≈ 0.15 µg/mL)
MBC [12, 21]: >25 µM
MIC [12, 21]: >25 µM
MBC [12, 22]: > 25 µM
MIC [12, 22]: > 25 µM
MIC ([13]; Escherichia coli): 3.13 µM (≈ 1.2 µg/mL)
TP4-3 and meropenem combined MIC ([13]; TP4-3 and M): 0.097 µM
mature biofilm rupture [14]: minor potential for causing biofilm rupture
kidney (BUN, CRE) and liver function (GOT, GPT) [15]: poor liver function profiles
survival [15]: 37.5%

CC[C@H](C)[C@H](NC(=O)[C@@H](NC(=O)[C@@H](N)Cc1ccccc1)[C@@H](C)CC)C(=O)N[C@]1(C)CCCC=CCCC[C@](C)(C(=O)NCC(=O)N[C@@H](CC(C)C)C(=O)N[C@@H](Cc2ccccc2)C(=O)N[C@@H](CCCCN)C(=O)N[C@@H](CCCCN)C(=O)N[C@@H](CCCCN)C(=O)N[C@@H](C)C(=O)NCC(=O)N[C@@H](C)C(=O)N[C@]2(C)CCCC=CCCC[C@](C)(C(=O)N[C@H](C(=O)N[C@@H](CCCCN)C(=O)N[C@@H](CCCCN)C(=O)O)[C@@H](C)CC)NC(=O)[C@H](CCCCN)NC(=O)[C@H](CCCCN)NC(=O)[C@H](CCCCN)NC2=O)NC(=O)[C@H](CO)NC(=O)[C@H](CCCCN)NC(=O)[C@H](CCCCN)NC1=O [TP4-3] (H-FII[R5]KKS[R5]GLFKKKAGA[R5]KKK[R5]IKK-OH; staple 4-8, 18-22; N-terminus and C-terminus assumed)
time to clear the entire bacterial load [1]: ≤ 8 h
TP4-3 and meropenem combined MIC ([2]; TP4-3 and D): 3.13 µM
TP4-3 and meropenem combined MIC ([2]; TP4-3 and M): 3.13 µM
MIC [2]: 12.5 µM
TP4-3 and meropenem combined MIC ([3]; TP4-3 and D): 3.13 µM
TP4-3 and meropenem combined MIC ([3]; TP4-3 and M): 3.13 µM
MIC [3]: 12.5 µM
TP4-3 and meropenem combined MIC ([4]; TP4-3 and D): 3.13 µM
TP4-3 and meropenem combined MIC ([4]; TP4-3 and M): 3.13 µM
MIC [4]: 6.25 µM
TP4-3 and meropenem combined MIC ([5]; TP4-3 and D): 3.13 µM
TP4-3 and meropenem combined MIC ([5]; TP4-3 and M): 3.13 µM
MIC [5]: 6.25 µM
TP4-3 and meropenem combined MIC ([6]; TP4-3 and D): 3.13 µM
TP4-3 and meropenem combined MIC ([6]; TP4-3 and M): 3.13 µM
MIC [6]: 6.25 µM
MBC ([7]; MDR 921): 6.25 µM (≈ 18.1 µg/mL)
MIC ([7]; MDR 921): 6.25 µM (≈ 18.1 µg/mL)
MBC ([8]; MDR 2962): 12.5 µM (≈ 36.1 µg/mL)
MIC ([8]; MDR 2962): 6.25 µM (≈ 18.1 µg/mL)
MBC [9]: 25 µM (≈ 72.3 µg/mL)
MIC [9]: 25 µM (≈ 72.3 µg/mL)
MBC [10]: 25 µM (≈ 72.3 µg/mL)
MIC [10]: 25 µM (≈ 72.3 µg/mL)
MBC [11]: 25 µM (≈ 72.3 µg/mL)
MIC [11]: 25 µM (≈ 72.3 µg/mL)
MBC ([12]; NDM-1): 25 µM (≈ 72.3 µg/mL)
MIC ([12]; NDM-1): 25 µM (≈ 72.3 µg/mL)
TP4-3 and meropenem combined MIC ([13]; TP4-3 and D): 6.25 µM
TP4-3 and meropenem combined MIC ([13]; TP4-3 and M): 0.78 µM
MIC [13]: 25 µM (≈ 72.3 µg/mL)
mature biofilm rupture [14]: minor potential for causing biofilm rupture
serum IL-6 level [15, 23]: lower levels
serum IL-10 level [15, 23]: higher level
serum IL-12 level [15, 23]: no difference
serum IL-18 level [15, 23]: lower levels
serum MCP-1 level [15, 23]: lower levels
serum TNF-α level [15, 23]: lower levels
kidney (BUN, CRE) and liver function (GOT, GPT) [15]: significantly improved
bacterial burden in peritoneal lavage fluid [15, 24]: no significant difference
decrease of bacterial burden, blood [15, 24]: 54%
decrease of bacterial burden, kidney [15, 24]: 51%
decrease of bacterial burden, liver [15, 24]: 61%
decrease of bacterial burden, lung [15, 24]: 51%
decrease of bacterial burden, spleen [15, 24]: 55%
bacterial burdens in the blood, lung, and liver ([15]; 72 h post-treatment, compared to CLP + saline): lower bacterial burdens
survival [15]: 87.5%
